Experiments:
Type in all cases: in vivo
[1] = tested on: woolly cupgrass (Eriochloa villosa); test: Test B pre-/postemergence plant response; conditions: for Cupgrass, Woolly plant response rating: 8 g ai/ha
Procedure, shortened: (§1)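 Seeds were sown and sprayed preemergence, while plants at 2 to 18 cm (1- to 4-leaf stage) got postemergence sprays. Compounds were formulated in a non-phytotoxic solvent mixture with surfactant. After 13 to 15 days in a greenhouse, injury was rated visually against untreated controls, 0 (no effect) to 100 (complete control).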

[2] = tested on: goosegrass (Eleusine indica); test: Test B pre-/postemergence plant response; conditions: for Goosegrass plant response rating: 8 g ai/ha
Procedure, shortened: as §1

soybean (Glycine max) = test: Test B pre-/postemergence plant response; conditions: for Soybean plant response rating: 8 g ai/ha
Procedure, shortened: as §1

kochia (Kochia scoparia) = test: Test B pre-/postemergence plant response; conditions: for Kochia plant response rating: 8 g ai/ha
Procedure, shortened: as §1

[3] = tested on: eastern black (E.B.) nightshade (Solanum ptycanthum); test: Test B pre-/postemergence plant response; conditions: Preemergence; for Nightshade, E. B. plant response rating: 8 g ai/ha
Procedure, shortened: as §1

[4] = tested on: pigweed (Amaranthus retroflexus); test: Test B pre-/postemergence plant response; conditions: for Pigweed plant response rating: 8 g ai/ha
Procedure, shortened: as §1

[5] = tested on: Italian ryegrass (Lolium multiflorum); test: Test B pre-/postemergence plant response; conditions: for Ryegrass, Italian plant response rating: 8 g ai/ha
Procedure, shortened: as §1

[6] = tested on: Russian thistle (Salsola iberica); test: Test B pre-/postemergence plant response; conditions: Preemergence
Procedure, shortened: as §1

[7] = tested on: yellow nutsedge (Cyperus esculentus); test: Test B pre-/postemergence plant response; conditions: for Nutsedge, Yellow plant response rating: 8 g ai/ha
Procedure, shortened: as §1

[8] = tested on: cocklebur (Xanthium strumarium); test: Test B pre-/postemergence plant response; conditions: for Cocklebur plant response rating: 8 g ai/ha
Procedure, shortened: as §1

[9] = tested on: common ragweed (Ambrosia elation); test: Test B pre-/postemergence plant response; conditions: for Ragweed plant response rating: 8 g ai/ha
Procedure, shortened: as §1

[10] = tested on: wheat (Triticum aestivum); test: Test A pre-/postemergence plant response
Procedure, shortened: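 Scores reflect visual plant injury relative to untreated controls on a 0–100 scale, recorded approximately 10 days after simultaneous preemergence soil spraying and postemergence spraying of one- to two-leaf seedlings grown in loam–sand.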

[11] = Postemergence, 16 g ai/ha, scale 0 to 100
[12] = Postemergence, 31 g ai/ha, scale 0 to 100, 0 no effect, 100 complete control
[13] = Postemergence, 62 g ai/ha, scale 0 to 100
[14] = Preemergence, 16 g ai/ha, scale 0 to 100 (0 no effect, 100 complete control)
[15] = Preemergence, 31 g ai/ha, 0 to 100 scale, 0 no effect, 100 complete control
[16] = Preemergence, 62 g ai/ha, scale 0 to 100
[17] = 16 g ai/ha, scale 0 to 100 (0 no effect, 100 complete control)
[18] = Postemergence, 125 g ai/ha, 0 to 100 scale, 0 no effect, 100 complete control
[19] = Preemergence, 125 g ai/ha, 0 to 100 scale (0 no effect, 100 complete control)
[20] = Postemergence, 62 g ai/ha, scale 0 to 100, 0 no effect, 100 complete control
[21] = Preemergence, 31 g ai/ha, scale 0 to 100 (0 no effect, 100 complete control)
[22] = 31 g ai/ha, scale 0 to 100 (0 no effect, 100 complete control)

## CCc1cc(-c2ccc(Cl)c(Cl)c2)nn1-c1c(O)cnn(C)c1=O [Compound 20]
[1]; postemergence, 0-100 scale
  Cupgrass, Woolly plant response rating: 45
[1]; [11]
  Plant response rating, Cupgrass, Woolly: 90
[1]; [12]
  Plant response rating, Cupgrass, Woolly: 90
[1]; [13]
  Plant response rating, Cupgrass, Woolly: 100
[1]; [14]
  Plant response rating, Cupgrass, Woolly: 30
[1]; [15]
  Plant response rating, Cupgrass, Woolly: 50
[1]; [16]
  Plant response rating, Cupgrass, Woolly: 98
[1]; Preemergence, scale 0 to 100
  Cupgrass, Woolly plant response rating: 0
[2]; postemergence, 0-100 scale
  Goosegrass plant response rating: 5
[2]; [11]
  Plant response rating, Goosegrass: 20
[2]; [12]
  Plant response rating, Goosegrass: 65
[2]; [13]
  Plant response rating, Goosegrass: 80
[2]; [14]
  Plant response rating, Goosegrass: 0
[2]; [16]
  Plant response rating, Goosegrass: 70
[2]; Preemergence, scale 0 to 100
  Goosegrass plant response rating: 0
Soybean (Glycine max); postemergence, 0-100 scale
  Soybean plant response rating: 0
Soybean (Glycine max); [11]
  Plant response rating, Soybean: 0
Soybean (Glycine max); [12]
  Plant response rating, Soybean: 0
Soybean (Glycine max); [13]
  Plant response rating, Soybean: 0
Kochia (Kochia scoparia); postemergence, 0-100 scale
  Kochia plant response rating: 0
Kochia (Kochia scoparia); [11]
  Plant response rating, Kochia: 0
Kochia (Kochia scoparia); [12]
  Plant response rating, Kochia: 0
Kochia (Kochia scoparia); [13]
  Plant response rating, Kochia: 0
Kochia (Kochia scoparia); [14]
  Plant response rating, Kochia: 0
Kochia (Kochia scoparia); [15]
  Plant response rating, Kochia: 0
Kochia (Kochia scoparia); [16]
  Plant response rating, Kochia: 0
[3]; [17]
  Plant response rating, Nightshade, E. B.: 0
[3]; 62 g ai/ha, scale 0 to 100
  Plant response rating, Nightshade, E. B.: 0
[3]; scale 0 to 100
  Nightshade, E. B. plant response rating: 0
[4]; postemergence, 0-100 scale
  Pigweed plant response rating: 0
[4]; [11]
  Plant response rating, Pigweed: 0
[4]; [12]
  Plant response rating, Pigweed: 0
[4]; [13]
  Plant response rating, Pigweed: 0
[4]; [14]
  Plant response rating, Pigweed: 0
[4]; [15]
  Plant response rating, Pigweed: 0
[4]; [16]
  Plant response rating, Pigweed: 0
[4]; Preemergence, scale 0 to 100
  Pigweed plant response rating: 0
[5]; postemergence, 0-100 scale
  Ryegrass, Italian plant response rating: 40
[5]; [11]
  Plant response rating, Ryegrass, Italian: 55
[5]; [12]
  Plant response rating, Ryegrass, Italian: 90
[5]; [13]
  Plant response rating, Ryegrass, Italian: 90
[5]; [14]
  Plant response rating, Ryegrass, Italian: 35
[5]; [15]
  Plant response rating, Ryegrass, Italian: 40
[5]; [16]
  Plant response rating, Ryegrass, Italian: 90
[5]; Preemergence, scale 0 to 100
  Ryegrass, Italian plant response rating: 30
[6]; [17]
  Plant response rating, Russian Thistle: 0
[6]; 31 g ai/ha, 0 to 100 scale, 0 no effect, 100 complete control
  Plant response rating, Russian Thistle: 0
[6]; 62 g ai/ha, scale 0 to 100
  Plant response rating, Russian Thistle: 0
[7]; postemergence, 0-100 scale
  Nutsedge, Yellow plant response rating: 0
[7]; [11]
  Plant response rating, Nutsedge, Yellow: 0
[7]; [12]
  Plant response rating, Nutsedge, Yellow: 0
[7]; [13]
  Plant response rating, Nutsedge, Yellow: 0
[7]; [15]
  Plant response rating, Nutsedge, Yellow: 0
[7]; [16]
  Plant response rating, Nutsedge, Yellow: 0
[7]; Preemergence, scale 0 to 100
  Nutsedge, Yellow plant response rating: 0
[8]; postemergence, 0-100 scale
  Cocklebur plant response rating: 0
[8]; [11]
  Plant response rating, Cocklebur: 0
[8]; [12]
  Plant response rating, Cocklebur: 0
[8]; [13]
  Plant response rating, Cocklebur: 0
[8]; [14]
  Plant response rating, Cocklebur: 0
[8]; [15]
  Plant response rating, Cocklebur: 0
[8]; [16]
  Plant response rating, Cocklebur: 0
[8]; Preemergence, scale 0 to 100
  Cocklebur plant response rating: 0
[9]; postemergence, 0-100 scale
  Ragweed plant response rating: 0
[9]; [11]
  Plant response rating, Ragweed: 0
[9]; [12]
  Plant response rating, Ragweed: 0
[9]; [13]
  Plant response rating, Ragweed: 0
[9]; [16]
  Plant response rating, Ragweed: 0
[9]; Preemergence, scale 0 to 100
  Ragweed plant response rating: 0
[10]; [18]
  Plant response rating, Wheat: 50
[10]; Postemergence, 500 g ai/ha, 0 to 100 scale, 0 no effect, 100 complete control
  Plant response rating, Wheat: 70
[10]; [19]
  Plant response rating, Wheat: 60
[10]; Preemergence, 500 g ai/ha, 0 to 100 scale (0 no effect, 100 complete control)
  Plant response rating, Wheat: 80

## CCc1cc(-c2ccc(Cl)cc2)nn1-c1c(OC(=O)OC(C)C)cnn(C)c1=O [Compound 41]
[1]; postemergence, 0-100 scale
  Cupgrass, Woolly plant response rating: 95
[1]; [11]
  Plant response rating, Cupgrass, Woolly: 100
[1]; [12]
  Plant response rating, Cupgrass, Woolly: 100
[1]; [20]
  Plant response rating, Cupgrass, Woolly: 100
[1]; [14]
  Plant response rating, Cupgrass, Woolly: 0
[1]; [15]
  Plant response rating, Cupgrass, Woolly: 0
[1]; [16]
  Plant response rating, Cupgrass, Woolly: 75
[1]; Preemergence, scale 0 to 100
  Cupgrass, Woolly plant response rating: 0
[2]; postemergence, 0-100 scale
  Goosegrass plant response rating: 80
[2]; [11]
  Plant response rating, Goosegrass: 80
[2]; [12]
  Plant response rating, Goosegrass: 85
[2]; [20]
  Plant response rating, Goosegrass: 98
[2]; [14]
  Plant response rating, Goosegrass: 0
[2]; [15]
  Plant response rating, Goosegrass: 0
[2]; [16]
  Plant response rating, Goosegrass: 0
[2]; Preemergence, scale 0 to 100
  Goosegrass plant response rating: 0
Soybean (Glycine max); postemergence, 0-100 scale
  Soybean plant response rating: 0
Soybean (Glycine max); [11]
  Plant response rating, Soybean: 0
Soybean (Glycine max); [20]
  Plant response rating, Soybean: 0
Soybean (Glycine max); [14]
  Plant response rating, Soybean: 0
Soybean (Glycine max); [21]
  Plant response rating, Soybean: 0
Soybean (Glycine max); [16]
  Plant response rating, Soybean: 0
Soybean (Glycine max); Preemergence, scale 0 to 100
  Soybean plant response rating: 0
Kochia (Kochia scoparia); postemergence, 0-100 scale
  Kochia plant response rating: 0
Kochia (Kochia scoparia); [11]
  Plant response rating, Kochia: 0
Kochia (Kochia scoparia); [12]
  Plant response rating, Kochia: 0
Kochia (Kochia scoparia); [20]
  Plant response rating, Kochia: 0
Kochia (Kochia scoparia); [14]
  Plant response rating, Kochia: 0
Kochia (Kochia scoparia); [15]
  Plant response rating, Kochia: 0
Kochia (Kochia scoparia); [16]
  Plant response rating, Kochia: 0
Kochia (Kochia scoparia); Preemergence, scale 0 to 100
  Kochia plant response rating: 0
[3]; [17]
  Plant response rating, Nightshade, E. B.: 0
[3]; [22]
  Plant response rating, Nightshade, E. B.: 0
[3]; 62 g ai/ha, scale 0 to 100
  Plant response rating, Nightshade, E. B.: 0
[3]; scale 0 to 100
  Nightshade, E. B. plant response rating: 0
[4]; postemergence, 0-100 scale
  Pigweed plant response rating: 0
[4]; [11]
  Plant response rating, Pigweed: 0
[4]; [12]
  Plant response rating, Pigweed: 0
[4]; [20]
  Plant response rating, Pigweed: 0
[4]; [14]
  Plant response rating, Pigweed: 0
[4]; [21]
  Plant response rating, Pigweed: 0
[4]; [16]
  Plant response rating, Pigweed: 0
[4]; Preemergence, scale 0 to 100
  Pigweed plant response rating: 0
[5]; postemergence, 0-100 scale
  Ryegrass, Italian plant response rating: 90
[5]; [11]
  Plant response rating, Ryegrass, Italian: 98
[5]; [12]
  Plant response rating, Ryegrass, Italian: 100
[5]; [20]
  Plant response rating, Ryegrass, Italian: 100
[5]; [14]
  Plant response rating, Ryegrass, Italian: 85
[5]; [21]
  Plant response rating, Ryegrass, Italian: 100
[5]; [16]
  Plant response rating, Ryegrass, Italian: 100
[5]; Preemergence, scale 0 to 100
  Ryegrass, Italian plant response rating: 85
[6]; [22]
  Plant response rating, Russian Thistle: 0
[6]; 62 g ai/ha, scale 0 to 100
  Plant response rating, Russian Thistle: 0
[7]; postemergence, 0-100 scale
  Nutsedge, Yellow plant response rating: 0
[7]; [11]
  Plant response rating, Nutsedge, Yellow: 0
[7]; [12]
  Plant response rating, Nutsedge, Yellow: 0
[7]; [20]
  Plant response rating, Nutsedge, Yellow: 0
[7]; [14]
  Plant response rating, Nutsedge, Yellow: 0
[7]; [21]
  Plant response rating, Nutsedge, Yellow: 0
[7]; [16]
  Plant response rating, Nutsedge, Yellow: 0
[7]; Preemergence, scale 0 to 100
  Nutsedge, Yellow plant response rating: 0
[8]; postemergence, 0-100 scale
  Cocklebur plant response rating: 0
[8]; [11]
  Plant response rating, Cocklebur: 0
[8]; [12]
  Plant response rating, Cocklebur: 0
[8]; [20]
  Plant response rating, Cocklebur: 0
[8]; [14]
  Plant response rating, Cocklebur: 0
[8]; [15]
  Plant response rating, Cocklebur: 0
[8]; [16]
  Plant response rating, Cocklebur: 0
[8]; Preemergence, scale 0 to 100
  Cocklebur plant response rating: 0
[9]; postemergence, 0-100 scale
  Ragweed plant response rating: 0
[9]; [11]
  Plant response rating, Ragweed: 0
[9]; [12]
  Plant response rating, Ragweed: 0
[9]; [20]
  Plant response rating, Ragweed: 0
[9]; [14]
  Plant response rating, Ragweed: 0
[9]; [21]
  Plant response rating, Ragweed: 0
[9]; [16]
  Plant response rating, Ragweed: 0
[9]; Preemergence, scale 0 to 100
  Ragweed plant response rating: 0
[10]; Postemergence, 31 g ai/ha, 0 to 100 scale (0 no effect, 100 complete control)
  Plant response rating, Wheat: 60
[10]; [18]
  Plant response rating, Wheat: 70
[10]; Preemergence, 31 g ai/ha, 0 to 100 scale, 0 is no effect, 100 is complete control
  Plant response rating, Wheat: 50
[10]; [19]
  Plant response rating, Wheat: 80

From patent US20100267561A1, “HERBICIDAL PYRIDAZINONE DERIVATIVES” (priority 2007, published 2010)
